ChEMBL document CHEMBL1124199, “Thienylpyrazoloquinolines: potent agonists and inverse agonists to benzodiazepine receptors” (J Med Chem, 1988)
Active and inactive are the calls of the source. No cut-off for these calls is given here.

Assays:
Mus musculus [1] = assay: Agonist activity was evaluated by the inhibition of the pentylenetetrazole (PTZ) induced convulsions after peroral administration; format: functional; conditions: po
[2] = target: GABA-A receptor; anion channel; assay: Binding affinity against benzodiazepine (BZ) receptor by displacing [3H]diazepam in cerebral cortex of Wistar rats; format: tissue-based, Rattus norvegicus
Mus musculus [3] = assay: Inverse agonist activity of orally administered compound against a subcutaneous dose of 90 mg/kg of PTZ-induced convulsions in mice; Inactive up to 50 mg/kg; format: functional, organism-based
Mus musculus [4] = assay: Agonist activity was evaluated by the inhibition of the pentylenetetrazole (PTZ) induced convulsions after peroral administration at 50 mg/kg; format: functional; conditions: route oral
Mus musculus [5] = assay: Agonist activity was evaluated by the inhibition of the pentylenetetrazole (PTZ) induced convulsions after peroral administration; Inactive up to 50 mg/kg; format: functional, organism-based; set-up: dose 50 mg/kg
Mus musculus [6] = assay: Inverse agonist activity of orally administered compound against a subcutaneous dose of 75 mg/kg of PTZ-induced convulsions in mice; inactive up to 50 mg/kg; format: functional, organism-based
Mus musculus [7] = assay: Inverse agonist activity of orally administered compound against a subcutaneous dose of 90 mg/kg of PTZ-induced convulsions in mice; inactive up to 50 mg/kg; format: functional, organism-based
Mus musculus [8] = assay: Inverse agonist activity of orally administered compound against a subcutaneous dose of 90 mg/kg of PTZ-induced convulsions in mice; format: functional; conditions: route oral
Mus musculus [9] = assay: Inverse agonist activity of orally administered compound against a subcutaneous dose of 75 mg/kg of PTZ-induced convulsions in mice; format: functional; conditions: route oral
Mus musculus [10] = assay: Inverse agonist activity of orally administered compound against a subcutaneous dose of 90 mg/kg of PTZ-induced convulsions in mice expressed as percent of mice affected; format: functional; conditions: route oral
Mus musculus [11] = assay: Inverse agonist activity of orally administered compound against a subcutaneous dose of 50 mg/kg of PTZ-induced convulsions in mice; expressed as percent of mice affected; format: functional; conditions: route oral
Mus musculus [12] = assay: Inverse agonist activity of orally administered compound against a subcutaneous dose of 90 mg/kg of PTZ-induced convulsions in mice; inactive; format: functional, organism-based; set-up: dose 90 mg/kg
Mus musculus [13] = assay: Inverse agonist activity of orally administered compound against a subcutaneous dose of 90 mg/kg of PTZ-induced convulsions in mice; Inactive; format: functional, organism-based; set-up: dose 90 mg/kg
Mus musculus [14] = assay: Inverse agonist activity of orally administered compound against a subcutaneous dose of 50 mg/kg of PTZ-induced convulsions in mice; format: functional; conditions: route oral
Mus musculus [15] = assay: Inverse agonist activity of orally administered compound against a subcutaneous dose of 75 mg/kg of PTZ-induced convulsions in mice; Inactive up to 50 mg/kg; format: functional, organism-based

`CCCCc1ccc(-n2[nH]c3c(cnc4ccccc43)c2=O)s1` was tested, and the ED50 (Mus musculus [1]) was 12.5 mg/kg and the Ki [2] was 1.48 nM.

In the case of `O=C1C2C=Nc3ccccc3C2=NN1c1ccc(Cl)cc1` (centres undefined) [CGS-9896], the ED50 (Mus musculus [1]) is reported as 1.17 mg/kg and the Ki [2] is reported as 0.83 nM.

`Cc1ccc(-n2[nH]c3c(cnc4c(C)cccc43)c2=O)s1` was tested, and the ED50 (Mus musculus [1]) was 25 mg/kg, the ED50 (Mus musculus [3]) was “inactive” and the Ki [2] was 0.83 nM.

With `Cc1ccc(-n2[nH]c3c(cnc4c(Cl)cccc43)c2=O)s1` the Animals affected (Mus musculus [4]) was 25%, the ED50 (Mus musculus [3]) was “inactive” and the Ki [2] was 0.75 nM.

In the case of `Cc1ccc(-n2[nH]c3c(cnc4cc(Cl)ccc43)c2=O)s1`, the ED50 (Mus musculus [5]) is reported as “inactive”, the ED50 (Mus musculus [3]) is reported as “inactive” and the Ki [2] is reported as 1.05 nM.

With `Cc1cc(-n2[nH]c3c(cnc4cc(Cl)ccc43)c2=O)cs1` the ED50 (Mus musculus [6]) was “inactive”, the ED50 (Mus musculus [5]) was “inactive” and the ED50 (Mus musculus [7]) was “inactive”. It also gave a Ki [2] of 0.78 nM.

In the case of `Cc1cc(-n2[nH]c3c(cnc4ccccc43)c2=O)sc1C`, the ED50 (Mus musculus [1]) is reported as 30.6 mg/kg and the Ki [2] is reported as 0.73 nM.

`Cc1cc(-n2nc3c4ccccc4n(C)cc-3c2=O)cs1` was tested, and the ED50 (Mus musculus [8]) was 1.48 mg/kg, the ED50 (Mus musculus [9]) was 2.94 mg/kg and the Ki [2] was 215 nM.

For `Cc1cc(-n2[nH]c3c(cnc4ccccc43)c2=O)c(Br)s1`, the ED50 (Mus musculus [6]) was “inactive”, the ED50 (Mus musculus [5]) was “inactive” and the ED50 (Mus musculus [7]) was “inactive”. The Ki [2] was 27.2 nM.

For `Cc1ccc(-n2[nH]c3c(cnc4cc(F)ccc43)c2=O)s1`, the ED50 (Mus musculus [1]) was 16.3 mg/kg and the Ki [2] was 0.65 nM.

`Cc1csc(-n2[nH]c3c(cnc4ccccc43)c2=O)c1` was tested, and the ED50 (Mus musculus [6]) was “inactive”, the Affected animals (Mus musculus [10]) was 62.5% and the ED50 (Mus musculus [5]) was “inactive”. For the same compound, the Ki [2] was 0.48 nM.

`CN1C(=O)CN=C(c2ccccc2)c2cc(Cl)ccc21` [DIAZEPAM] gave an ED50 (Mus musculus [1]) of 0.67 mg/kg.

With `Cc1cc(-n2[nH]c3c(cnc4c(C)cccc43)c2=O)cs1` the ED50 (Mus musculus [8]) was 5.24 mg/kg, the ED50 (Mus musculus [9]) was 12.9 mg/kg and the Ki [2] was 0.38 nM.

With `Cc1cc(-n2[nH]c3c(cnc4cc(F)ccc43)c2=O)cs1` the ED50 (Mus musculus [8]) was 6.15 mg/kg, the Affected animals (Mus musculus [11]) was 37.7% and the Ki [2] was 0.64 nM.

With `Cc1ccc(-n2[nH]c3c(cnc4c(F)cccc43)c2=O)s1` the ED50 (Mus musculus [1]) was 30.4 mg/kg and the Ki [2] was 0.92 nM.

Compound `Cc1ccc(-n2nc3c4ccccc4n(C)cc-3c2=O)s1` has an ED50 (Mus musculus [1]) of 13.4 mg/kg and a Ki [2] of 1020 nM.

In the case of `COC(=O)c1sccc1-n1[nH]c2c(cnc3ccccc32)c1=O`, the ED50 (Mus musculus [6]) is reported as “inactive”, the ED50 (Mus musculus [5]) is reported as “inactive” and the ED50 (Mus musculus [12]) is reported as “inactive”. It also gave a Ki [2] of 142 nM.

In the case of `O=c1c2cnc3ccccc3c2[nH]n1-c1ccsc1`, the ED50 (Mus musculus [8]) is reported as 2.49 mg/kg, the ED50 (Mus musculus [9]) is reported as 7.62 mg/kg and the Ki [2] is reported as 0.73 nM.

For `Cc1cc(C(=O)O)c(-n2[nH]c3c(cnc4ccccc43)c2=O)s1`, the ED50 (Mus musculus [5]) was “inactive”, the ED50 (Mus musculus [3]) was “inactive” and the Ki [2] was 21.6 nM.

In the case of `Cc1cc(-n2[nH]c3c(cnc4ccccc43)c2=O)c(Cl)s1`, the ED50 (Mus musculus [13]) is reported as “inactive”, the ED50 (Mus musculus [6]) is reported as “inactive” and the ED50 (Mus musculus [5]) is reported as “inactive”. It also gave a Ki [2] of 4.69 nM.

`O=c1c2cnc3ccccc3c2[nH]n1-c1ccc(Cl)s1` was tested, and the Affected animals (Mus musculus [10]) was 25%, the ED50 (Mus musculus [5]) was “inactive” and the Ki [2] was 2.48 nM.

Work on `CCn1cc2c(=O)n(-c3csc(C)c3)nc-2c2ccccc21` yielded an ED50 (Mus musculus [8]) of 5.24 mg/kg, an ED50 (Mus musculus [9]) of 13.3 mg/kg and a Ki [2] of 436 nM.

In the case of `Cc1ccc2c(c1)ncc1c(=O)n(-c3csc(C)c3)[nH]c12`, the ED50 (Mus musculus [13]) is reported as “inactive”, the ED50 (Mus musculus [5]) is reported as “inactive” and the Ki [2] is reported as 0.96 nM.

`Cc1cc(-n2[nH]c3c(cnc4ccccc43)c2=O)cs1` gave an ED50 (Mus musculus [8]) of 0.92 mg/kg.

Work on `Cc1cc(-n2[nH]c3c(cnc4c(F)cccc43)c2=O)cs1` yielded an ED50 (Mus musculus [8]) of 1.32 mg/kg, an ED50 (Mus musculus [9]) of 2.58 mg/kg and a Ki [2] of 0.37 nM.

With `O=c1c2cnc3ccccc3c2[nH]n1-c1cccs1` the ED50 (Mus musculus [8]) was 9.54 mg/kg, the Animals affected (Mus musculus [14]) was 50% and the ED50 (Mus musculus [5]) was “inactive”. It also gave a Ki [2] of 0.41 nM.

`CCOC(=O)c1cc(C)sc1-n1[nH]c2c(cnc3ccccc32)c1=O` was tested, and the ED50 (Mus musculus [5]) was “inactive”, the ED50 (Mus musculus [3]) was “inactive” and the Ki [2] was 9.84 nM.

`Cc1ccc2c(c1)ncc1c(=O)n(-c3ccc(C)s3)[nH]c12` was tested, and the ED50 (Mus musculus [13]) was “inactive”, the ED50 (Mus musculus [5]) was “inactive” and the Ki [2] was 2.34 nM.

With `O=c1c2cnc3ccccc3c2[nH]n1-c1csc(Cl)c1` the ED50 (Mus musculus [8]) was 11.5 mg/kg, the ED50 (Mus musculus [9]) was 23.2 mg/kg and the Ki [2] was 0.73 nM.

In the case of `O=C1C2C=Nc3ccccc3C2=NN1c1ccccc1` (centres undefined), the ED50 (Mus musculus [15]) is reported as “inactive”.

In the case of `O=C(O)c1sccc1-n1[nH]c2c(cnc3ccccc32)c1=O`, the ED50 (Mus musculus [13]) is reported as “inactive”, the ED50 (Mus musculus [6]) is reported as “inactive” and the ED50 (Mus musculus [5]) is reported as “inactive”. For the same compound, the Ki [2] was 17.8 nM.

With `CCc1cc(-n2[nH]c3c(cnc4ccccc43)c2=O)cs1` the ED50 (Mus musculus [6]) was “inactive”, the ED50 (Mus musculus [8]) was 10.3 mg/kg and the Ki [2] was 0.41 nM.

For `Cc1cc(-n2[nH]c3c(cnc4c(Cl)cccc43)c2=O)cs1`, the ED50 (Mus musculus [8]) was 7.7 mg/kg, the ED50 (Mus musculus [9]) was 13.5 mg/kg and the Ki [2] was 0.63 nM.

For `CCc1ccc(-n2[nH]c3c(cnc4ccccc43)c2=O)s1`, the ED50 (Mus musculus [1]) was 14.3 mg/kg and the Ki [2] was 1.02 nM.

`Cc1cscc1-n1[nH]c2c(cnc3ccccc32)c1=O` showed an ED50 (Mus musculus [8]) of 22.3 mg/kg, an ED50 (Mus musculus [9]) of 84.4 mg/kg and a Ki [2] of 6.86 nM.
